# Results reported in ChEMBL document CHEMBL1149799, “Bioactive peroxides as potential therapeutic agents” (Eur J Med Chem, 2008).
# Key:
# Plasmodium falciparum = assay: Antimalarial activity against Plasmodium falciparum W2; type: functional, organism-based
# A549 [1] = assay: Cytotoxicity against human A549 cells; type: functional, cell-based; conditions: Homo sapiens, A549; for EC50: read-out: ED50 (the source's name)
# HT-29 = assay: Cytotoxicity against human HT29 cells; type: functional, cell-based; conditions: Homo sapiens, HT-29
# P388 = assay: Cytotoxicity against mouse P388 cells; type: functional, cell-based; conditions: Mus musculus, P388; for EC50: read-out: ED50 (the source's name)
# DU-145 = assay: Cytotoxicity against human DU145 cells; type: functional, cell-based; conditions: Homo sapiens, DU-145
# [2] = Cytotoxicity against human MEL28 cells; conditions: SK-MEL-28
# Candida albicans = assay: Antifungal activity against Candida albicans; type: functional
# [3] = Cytotoxicity against human IGRO cells by soft agar assay; type: functional
# [4] = Cytotoxicity against human LOX cells by soft agar assay; type: functional
# HCT-116 = assay: Cytotoxicity against human HCT116 cells; type: functional, cell-based
# KB = assay: Cytotoxicity against human KB cells; type: functional, cell-based; conditions: Homo sapiens; for EC50: KB, read-out: ED50 (the source's name)
# [5] = Cytotoxicity against human […] cells; type: functional; conditions: read-out: ED50 (the source's name)
# [6] = Cytotoxicity against human CFUGM; type: functional; conditions: CFU-GM
# [7] = Cytotoxicity against mouse Ehrlich Ascites carcinoma by clonogenic assay; type: functional
# [8] = Cytotoxicity against mouse Ehrlich Ascites carcinoma by […] assay; type: functional
# [9] = Cytotoxicity against human NCI60 cells; type: functional
# A549 [10] = assay: Cytotoxicity against human A549 cells by soft agar assay; type: functional
# HL-60 = assay: Cytotoxicity against human HL60 cells by soft agar assay; type: functional
# KM12 = assay: Cytotoxicity against human KM12 cells by soft agar assay; type: functional
# MOLT-4 = assay: Cytotoxicity against human MOLT4 cells by soft agar assay; type: functional
# 786-0 = assay: Cytotoxicity against human renal 7860 cells by soft agar assay; type: functional
# BT-549 = assay: Cytotoxicity against human BT549 cells by soft agar assay; type: functional
# MDA-MB-231 = assay: Cytotoxicity against human MDA-MB-231 cells; type: functional, cell-based
# HeLa = assay: Cytotoxicity against human HeLa cells; type: functional, cell-based
# WEHI-164 = assay: Cytotoxicity against mouse WEHI164 cells; type: functional, cell-based
# L1210 = assay: Cytotoxicity against mouse L1210 cells; type: functional, cell-based; conditions: Mus musculus, L1210
# LoVo = assay: Cytotoxicity against human LoVo cells; type: functional
structure (smiles),measurement,setting,value
CCC/C=C/[C@]1(CC)C[C@H](CC)[C@H](CC(=O)O)OO1 [PLAKORTIDE L],IC50,Plasmodium falciparum,0.57 µg/mL
C=CCC/C=C\C=C/CCCCCCCC[C@@H]1CC[C@@H]([C@@H]2CC[C@@H](CC(=O)[O-])OO2)O1.[Na+],IC50,A549 [1],0.1 µg/mL
same,IC50,HT-29,0.1 µg/mL
same,IC50,P388,0.01 µg/mL
same,IC50,DU-145,0.1 µg/mL
same,IC50,[2],0.1 µg/mL
"CC(CCCCCC/C=C\C=C\c1ccccc1)CC1(C)CC(C)(CC(=O)O)OO1 (single isomer, unassigned)",MIC,Candida albicans,1.6 µg/mL
C=C1CCCC(C)(C)C1CC[C@@]1(C)CC[C@H]([C@@H](C)C(=O)O)OO1 (stereo partly drawn) [NAPAPUIN B],GI50,[3],630 nM
same,GI50,[4],250 nM
CC(CCCCCCCCc1ccccc1)CC(C)C[C@]1(C)C[C@](C)(CC(=O)O)OO1 (stereo partly drawn) [EPIPLAKINIC ACID H],IC50,HCT-116,390 nM
CC(C)/C(=C\COO)CC[C@@H](C)[C@H]1CC[C@@H]2[C@@H]1CC[C@H]1[C@H]2CC=C2C[C@@H](O)CC[C@@]21C,EC50,A549 [1],2.2 µg/mL
same,EC50,KB,2.2 µg/mL
same,EC50,[5],5 µg/mL
same,EC50,P388,0.5 µg/mL
C=CCC/C=C\C=C/CCCCCCCC[C@H]1CC[C@H]([C@@H]2CC[C@@H](CC(=O)OC)OO2)O1,IC50,A549 [1],0.1 µg/mL
same,IC50,HT-29,0.05 µg/mL
same,IC50,P388,0.5 µg/mL
same,IC50,DU-145,0.1 µg/mL
same,IC50,[2],0.5 µg/mL
C[C@@H]1CC[C@H]2[C@@H](C)C(=O)O[C@@H]3O[C@@]4(C)CC[C@@H]1[C@]32OO4 [ARTEMISININ],IC50,[6],385 µM
same,IC50,[7],> 1 mM
same,IC50,[8],> 723 µM
CC1(C)CC(C23C=CC(CO)(CCC2)OO3)CCC1Br (stereo not drawn) [MAJAPOLENES A],GI50,[9],400 nM
same,TGI,[9],900 nM
same,CC50,[9]; read-out: LC50 (the source's name),2800 nM
C=C1CCC[C@@H]2[C@@H](CC[C@@]3(C)CC[C@H]([C@H](C)C(=O)O)OO3)[C@H](C)CC[C@@]12C [SIGMOSCEPTRELLIN B],GI50,A549 [10],940 nM
same,GI50,HL-60,140 nM
same,GI50,KM12,950 nM
same,GI50,[3],100 nM
same,GI50,MOLT-4,840 nM
same,GI50,786-0,500 nM
same,GI50,BT-549,960 nM
same,GI50,[4],160 nM
CCCCC(CC)CC(C)C[C@]1(CC)C[C@H](CC)[C@H](CC(=O)OC)OO1 (stereo partly drawn) [PLAKORITIDE Q ME],IC50,A549 [1],7.8 µM
same,IC50,MDA-MB-231,18.4 µM
same,IC50,HT-29,13 µM
CC(CCCCCCCCc1ccccc1)CC(C)C[C@@]1(C)C[C@](C)(CC(=O)O)OO1 (stereo partly drawn) [EPIPLAKINIC ACID G],IC50,HCT-116,160 nM
C[C@H](C(=O)O)[C@@H]1CC[C@@](C)(CC[C@@]2(C)C3=CCCC(C)(C)[C@@H]3CC[C@H]2C)OO1 [MYCAPEROXIDE H],IC50,HeLa,0.8 µg/mL
C=C(C)[C@@H](CC)CC[C@@H](C)[C@H]1CC[C@H]2[C@@H]3C=C[C@@]4(OO)C[C@@H](O)CC[C@]4(C)[C@H]3CC[C@@H]21,EC50,A549 [1],1.1 µg/mL
same,EC50,KB,1 µg/mL
same,EC50,[5],0.9 µg/mL
same,EC50,P388,0.5 µg/mL
C=CCC/C=C\C=C/CCCCCCCC[C@@H]1CC[C@@H]([C@@H]2CC[C@@H](CC(=O)OC)OO2)O1,IC50,A549 [1],0.1 µg/mL
same,IC50,HT-29,0.1 µg/mL
same,IC50,P388,0.05 µg/mL
same,IC50,DU-145,0.1 µg/mL
same,IC50,[2],0.1 µg/mL
C=CCCC/C=C/C=C\CCCCCCCC[C@H]1CC[C@H]([C@@H]2CC[C@@H](CC(=O)[O-])OO2)O1.[Na+] [STOLONOXIDE D],IC50,A549 [1],0.1 µg/mL
same,IC50,HT-29,0.05 µg/mL
same,IC50,P388,0.5 µg/mL
same,IC50,DU-145,0.1 µg/mL
same,IC50,[2],0.1 µg/mL
CC/C=C/C(CC)C/C(C)=C/[C@]1(CC)C[C@H](CC)[C@H](CC(=O)OC)OO1 (stereo partly drawn) [PLAKORTIDE H],IC50,WEHI-164,7.1 µg/mL
C=C1CCCC(C)(C)C1CC[C@]1(C)CC[C@H]([C@@H](C)C(=O)OC)OO1 (stereo partly drawn) [NUAPAPUIN B],GI50,[3],500 nM
same,GI50,MOLT-4,> 5000 nM
same,GI50,[4],470 nM
C=CCCC/C=C/C=C\CCCCCCCC[C@H]1CC[C@@H]([C@H]2CC[C@@H](CC(=O)O)OO2)O1 [STOLONOXIDE B],IC50,A549 [1],0.1 µg/mL
same,IC50,HT-29,0.1 µg/mL
same,IC50,P388,0.05 µg/mL
same,IC50,DU-145,0.1 µg/mL
same,IC50,[2],0.1 µg/mL
C=C[C@@H](O)C#CC#C/C=C/C(CCCCCCC)OO (stereo partly drawn) [GINSENOYNE K],IC50,HeLa,10.5 µg/mL
same,IC50,L1210,1.8 µg/mL
CCC/C=C/[C@]1(CC)C[C@H](CC)[C@H](CC(=O)OC)OO1 [PLAKORTIDE K],IC50,Plasmodium falciparum,0.57 µg/mL
CC(CC/C=C/CC/C=C/c1ccccc1)C[C@@]1(C)C[C@@](C)(CC(=O)O)OO1 (stereo partly drawn) [EPIPLAKINIC ACID D],MIC,KB,0.1 µg/mL
same,IC50,L1210,0.017 µg/mL
same,MIC,LoVo,0.1 µg/mL
CCCCC(CC)C/C(C)=C/[C@@]1(CC)C[C@@H](CC)[C@@H](CC(=O)OC)OO1 (stereo partly drawn),IC50,WEHI-164,9.5 µg/mL
